Results from patent US20230151003A1, “COMPOUNDS AND METHODS OF USE” (Exelixis, Inc., priority 2020, published 2023).

Key:
Met = Met (Homo sapiens, UniProt P08581); assay: Met autophosphorylation ELISA in PC-3 cells; type: cell-based; set-up: endogenous in cells; host or cells: PC-3 prostate cancer cells (ATCC #CRL-1435); settings: Table 3 Cellular Activities, HGF-stimulated, phospho-Met ELISA, read-out: c-Met IC50
Summary of the method: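 IC50 derived by 4-parameter logistic regression of phospho-Met (panTyr) sandwich ELISA signal, scaled between HGF-stimulated DMSO and reference-inhibitor lysates. PC-3 cells, serum-starved 3 h, received an 8-point compound series (0.3% DMSO) for 1 h before 10 min stimulation with 100 ng/mL human HGF.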

Mer = target: T1, Mer (Homo sapiens, UniProt Q12866); assay: Mer autophosphorylation ELISA in transient transfected 293A cells; type: cell-based; settings: Table 3 Cellular Activities; MERTK-transfected 293A cells, phospho-Mer ELISA
T1 construct: host or cells: 293A cells (Thermo Fisher #R70507)
T1 sequence (Q12866 21-999): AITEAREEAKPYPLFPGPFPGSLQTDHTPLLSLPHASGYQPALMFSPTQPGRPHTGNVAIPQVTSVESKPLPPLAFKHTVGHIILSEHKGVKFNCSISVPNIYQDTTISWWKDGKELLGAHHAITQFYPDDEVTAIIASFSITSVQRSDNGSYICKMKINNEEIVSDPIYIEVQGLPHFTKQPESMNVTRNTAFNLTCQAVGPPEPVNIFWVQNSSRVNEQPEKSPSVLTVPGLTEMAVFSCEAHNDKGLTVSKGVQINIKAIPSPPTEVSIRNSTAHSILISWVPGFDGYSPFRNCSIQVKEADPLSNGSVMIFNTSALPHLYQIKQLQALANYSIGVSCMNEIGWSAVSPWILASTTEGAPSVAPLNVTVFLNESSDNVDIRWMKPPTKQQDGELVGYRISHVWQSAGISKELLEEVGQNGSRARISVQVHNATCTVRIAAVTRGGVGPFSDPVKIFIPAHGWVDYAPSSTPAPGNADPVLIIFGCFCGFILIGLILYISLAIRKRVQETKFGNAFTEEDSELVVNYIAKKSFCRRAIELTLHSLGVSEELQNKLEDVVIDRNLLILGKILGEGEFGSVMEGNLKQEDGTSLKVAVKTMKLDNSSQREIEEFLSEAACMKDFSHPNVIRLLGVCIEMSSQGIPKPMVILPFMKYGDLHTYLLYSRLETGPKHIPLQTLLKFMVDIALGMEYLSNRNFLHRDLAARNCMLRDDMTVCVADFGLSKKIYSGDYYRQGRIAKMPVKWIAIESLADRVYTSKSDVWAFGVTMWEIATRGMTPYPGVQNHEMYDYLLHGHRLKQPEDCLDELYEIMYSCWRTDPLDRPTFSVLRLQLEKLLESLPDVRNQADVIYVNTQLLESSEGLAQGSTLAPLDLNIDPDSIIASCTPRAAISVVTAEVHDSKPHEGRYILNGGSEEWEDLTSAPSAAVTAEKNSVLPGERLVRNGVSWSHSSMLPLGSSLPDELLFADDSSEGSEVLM
Summary of the method: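 Phospho-Mer quantified by ELISA in lysates of transiently MERTK-transfected 293A cells after 1 h exposure to an 8-point compound series, serum-free, 0.3% DMSO. Activity normalized between DMSO-treated (100%) and reference inhibitor-treated (0%) lysates; IC50 via 4-parameter nonlinear regression.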

Met, sequence (P08581 25-1390): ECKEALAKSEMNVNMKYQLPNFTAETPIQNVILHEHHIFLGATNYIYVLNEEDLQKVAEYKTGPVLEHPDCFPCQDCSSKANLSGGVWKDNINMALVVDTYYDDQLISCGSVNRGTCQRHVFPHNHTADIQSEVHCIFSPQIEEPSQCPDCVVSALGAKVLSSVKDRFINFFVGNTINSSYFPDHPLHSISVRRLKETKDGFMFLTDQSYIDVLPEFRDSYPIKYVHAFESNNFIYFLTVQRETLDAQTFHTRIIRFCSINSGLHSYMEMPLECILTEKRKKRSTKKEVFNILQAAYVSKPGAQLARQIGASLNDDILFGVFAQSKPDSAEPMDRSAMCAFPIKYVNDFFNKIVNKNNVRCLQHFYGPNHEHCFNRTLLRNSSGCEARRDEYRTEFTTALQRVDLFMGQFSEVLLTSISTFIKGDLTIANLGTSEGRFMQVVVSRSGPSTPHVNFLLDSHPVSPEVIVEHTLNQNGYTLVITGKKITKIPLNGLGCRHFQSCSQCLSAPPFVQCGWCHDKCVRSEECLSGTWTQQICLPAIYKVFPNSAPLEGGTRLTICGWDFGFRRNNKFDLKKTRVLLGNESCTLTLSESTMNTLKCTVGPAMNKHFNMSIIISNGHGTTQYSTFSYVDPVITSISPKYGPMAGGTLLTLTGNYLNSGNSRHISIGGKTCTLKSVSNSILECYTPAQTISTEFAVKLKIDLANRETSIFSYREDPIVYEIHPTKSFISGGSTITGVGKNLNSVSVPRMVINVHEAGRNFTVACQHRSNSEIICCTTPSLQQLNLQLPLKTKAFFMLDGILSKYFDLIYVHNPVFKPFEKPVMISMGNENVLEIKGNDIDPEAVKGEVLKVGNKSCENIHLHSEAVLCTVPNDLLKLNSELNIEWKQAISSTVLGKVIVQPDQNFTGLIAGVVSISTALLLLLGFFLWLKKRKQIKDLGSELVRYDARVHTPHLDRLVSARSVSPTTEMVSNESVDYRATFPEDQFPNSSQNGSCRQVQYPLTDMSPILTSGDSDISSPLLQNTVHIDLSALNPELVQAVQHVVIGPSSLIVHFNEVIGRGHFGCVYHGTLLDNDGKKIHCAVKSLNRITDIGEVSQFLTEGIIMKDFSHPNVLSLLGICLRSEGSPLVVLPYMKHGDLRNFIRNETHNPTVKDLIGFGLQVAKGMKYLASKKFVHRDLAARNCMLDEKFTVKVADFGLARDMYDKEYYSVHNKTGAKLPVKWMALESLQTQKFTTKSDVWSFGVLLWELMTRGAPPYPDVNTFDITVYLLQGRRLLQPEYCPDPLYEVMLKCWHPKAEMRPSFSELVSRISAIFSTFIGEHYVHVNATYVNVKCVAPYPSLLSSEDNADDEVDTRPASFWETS

Row | IC50 (Met) | IC50 (Mer) | SMILES
1 | ≤ 100 nM | ≤ 100 nM | COc1cc2nccc(Oc3ccc(NC(=O)c4c(C)n(C)c(C)c(-c5ccco5)c4=O)cc3)c2nc1OC [Compound 164, N-[4-[(6,7-Dimethoxy-1,5-naphthyridin-4-yl)oxy]phenyl]-5-(furan-2-yl)-1,2,6-trimethyl-4-oxopyridine-3-carboxamide]
2 | ≤ 100 nM | ≤ 100 nM | COc1nc2c(Oc3ccc(NC(=O)c4c(C)n(C)c(C)c(-c5ccco5)c4=O)cc3F)ccnc2cc1OCCC1CCC1 [Compound 337, N-[4-[[7-(2-Cyclobutylethoxy)-6-methoxy-1,5-naphthyridin-4-yl]oxy]-3-fluorophenyl]-5-(furan-2-yl)-1,2,6-trimethyl-4-oxopyridine-3-carboxamide]
3 | ≤ 100 nM | ≤ 100 nM | COc1cnc2c(Oc3ccc(NC(=O)c4c(C)n(C)c(C)c(-c5cccs5)c4=O)cc3)ccnc2c1 [Compound 165, N-[4-[(7-Methoxy-1,5-naphthyridin-4-yl)oxy]phenyl]-1,2,6-trimethyl-4-oxo-5-thiophen-2-ylpyridine-3-carboxamide]
4 | ≤ 100 nM | ≤ 100 nM | COc1cc2nccc(Oc3ccc(NC(=O)c4c(C)nc(C)c(-c5cc(C(F)(F)F)nn5C)c4O)cc3F)c2nc1OC [Compound 138]
5 | ≤ 100 nM | ≤ 100 nM | COc1cc2nccc(Oc3ccc(NC(=O)c4cnc(C)c(-c5ccc(C(C)C)o5)c4O)cc3F)c2nc1OC [Compound 154, N-[4-[(6,7-Dimethoxy-1,5-naphthyridin-4-yl)oxy]-3-fluorophenyl]-4-hydroxy-6-methyl-5-(5-propan-2-ylfuran-2-yl)pyridine-3-carboxamide]
6 | ≤ 100 nM | ≤ 100 nM | COc1cnc2c(Oc3ccc(NC(=O)c4cnc(C)c(-c5ccco5)c4O)cc3F)ccnc2c1 [Compound 96, N-[3-Fluoro-4-[(7-methoxy-1,5-naphthyridin-4-yl)oxy]phenyl]-5-(2-furyl)-4-hydroxy-6-methyl-pyridine-3-carboxamide]
7 | ≤ 100 nM | ≤ 100 nM | COc1cnc2c(Oc3ccc(NC(=O)c4cn(CCF)c(C)c(-c5cccs5)c4=O)cc3F)ccnc2c1 [Compound 331, 1-(2-Fluoroethyl)-N-[3-fluoro-4-[(7-methoxy-1,5-naphthyridin-4-yl)oxy]phenyl]-6-methyl-4-oxo-5-thiophen-2-ylpyridine-3-carboxamide]
8 | ≤ 100 nM | ≤ 100 nM | COc1ccc2nccc(Oc3ccc(NC(=O)c4cnc(C)c(-c5cccs5)c4O)cc3F)c2n1 [Compound 128, N-[3-Fluoro-4-[(6-methoxy-1,5-naphthyridin-4-yl)oxy]phenyl]-4-hydroxy-6-methyl-5-thiophen-2-ylpyridine-3-carboxamide]
9 | ≤ 100 nM | ≤ 100 nM | COc1cc2nccc(Oc3ccc(NC(=O)c4cnc(C)c(-c5nccs5)c4O)cc3F)c2nc1OC [Compound 143, N-[4-[(6,7-Dimethoxy-1,5-naphthyridin-4-yl)oxy]-3-fluorophenyl]-4-hydroxy-6-methyl-5-(1,3-thiazol-2-yl)pyridine-3-carboxamide]
10 | 100 to 300 nM | ≤ 100 nM | CCc1ccc(-c2c(C)ncc(C(=O)Nc3ccc(Oc4ccnc5cc(OC)c(OC)nc45)c(F)c3)c2O)o1 [Compound 153, N-[4-[(6,7-Dimethoxy-1,5-naphthyridin-4-yl)oxy]-3-fluorophenyl]-5-(5-ethylfuran-2-yl)-4-hydroxy-6-methylpyridine-3-carboxamide]
11 | ≤ 100 nM | ≤ 100 nM | COCc1nc(C)c(-c2cccs2)c(O)c1C(=O)Nc1ccc(Oc2ccnc3cc(OC)c(OC)nc23)c(F)c1 [Compound 115, N-[4-[(6,7-Dimethoxy-1,5-naphthyridin-4-yl)oxy]-3-fluorophenyl]-4-hydroxy-2-(methoxymethyl)-6-methyl-5-thiophen-2-ylpyridine-3-carboxamide]
12 | ≤ 100 nM | ≤ 100 nM | COc1cc2nccc(Oc3ccc(NC(=O)c4cn(CCF)c(C)c(-c5ccco5)c4=O)cc3F)c2nc1OC [Compound 333, N-[4-[(6,7-Dimethoxy-1,5-naphthyridin-4-yl)oxy]-3-fluorophenyl]-1-(2-fluoroethyl)-5-(furan-2-yl)-6-methyl-4-oxopyridine-3-carboxamide]
13 | ≤ 100 nM | ≤ 100 nM | COc1cc2nccc(Oc3ccc(NC(=O)c4c(C)nc(C)c(-c5ccc(C6CC6)o5)c4O)cc3F)c2nc1OC [Compound 155B, 5-(5-Cyclopropylfuran-2-yl)-N-[4-[(6,7-dimethoxy-1,5-naphthyridin-4-yl)oxy]-3-fluorophenyl]-4-hydroxy-2,6-dimethylpyridine-3-carboxamide]
14 | ≤ 100 nM | ≤ 100 nM | COc1cc2nccc(Oc3ccc(NC(=O)c4c(C)ncc(-c5ccsc5)c4O)cc3F)c2nc1OC [Compound 127, N-[4-[(6,7-Dimethoxy-1,5-naphthyridin-4-yl)oxy]-3-fluorophenyl]-4-hydroxy-2-methyl-5-thiophen-3-ylpyridine-3-carboxamide]
15 | ≤ 100 nM | ≤ 100 nM | COc1cnc2c(Oc3ccc(NC(=O)c4cnc(C)c(-c5ccoc5)c4O)cc3F)ccnc2c1 [Compound 99, N-[3-Fluoro-4-[(7-methoxy-1,5-naphthyridin-4-yl)oxy]phenyl]-5-(3-furyl)-4-hydroxy-6-methyl-pyridine-3-carboxamide]
16 | ≤ 100 nM | ≤ 100 nM | COc1cc2nccc(Oc3ccc(NC(=O)c4c(C)nc(C)c(-c5sccc5C)c4O)cc3F)c2nc1OC [Compound 139, N-[4-[(6,7-Dimethoxy-1,5-naphthyridin-4-yl)oxy]-3-fluorophenyl]-4-hydroxy-2,6-dimethyl-5-(3-methylthiophen-2-yl)pyridine-3-carboxamide]
17 | ≤ 100 nM | ≤ 100 nM | COc1cc2nccc(Oc3ccc(NC(=O)c4cnc(C)c(-c5cncs5)c4O)cc3F)c2nc1OC [Compound 141, N-[4-[(6,7-Dimethoxy-1,5-naphthyridin-4-yl)oxy]-3-fluorophenyl]-4-hydroxy-6-methyl-5-(1,3-thiazol-5-yl)pyridine-3-carboxamide]
18 | ≤ 100 nM | ≤ 100 nM | COc1cc2nccc(Oc3ccc(NC(=O)c4c(C)n(C)c(C)c(-c5cccs5)c4=O)cc3)c2nc1OC [Compound 167, N-[4-[(6,7-Dimethoxy-1,5-naphthyridin-4-yl)oxy]phenyl]-1,2,6-trimethyl-4-oxo-5-thiophen-2-ylpyridine-3-carboxamide]
19 | ≤ 100 nM | ≤ 100 nM | COc1ccc2nccc(Oc3ccc(NC(=O)c4cnc(C)c(-c5ccco5)c4O)cc3F)c2n1 [Compound 118, N-[3-Fluoro-4-[(6-methoxy-1,5-naphthyridin-4-yl)oxy]phenyl]-5-(furan-2-yl)-4-hydroxy-6-methylpyridine-3-carboxamide]
20 | ≤ 100 nM | ≤ 100 nM | COc1cc2nccc(Oc3ccc(NC(=O)c4c(C)ncc(-c5cc(C)cs5)c4O)cc3F)c2nc1OC [Compound 125, N-[4-[(6,7-Dimethoxy-1,5-naphthyridin-4-yl)oxy]-3-fluorophenyl]-4-hydroxy-2-methyl-5-(4-methylthiophen-2-yl)pyridine-3-carboxamide]
21 | ≤ 100 nM | ≤ 100 nM | COc1cc2nccc(Oc3ccc(NC(=O)c4cnc(C)c(-c5cc(C)cs5)c4O)cc3F)c2nc1OC [Compound 91, N-[4-[(6,7-Dimethoxy-1,5-naphthyridin-4-yl)oxy]-3-fluoro-phenyl]-4-hydroxy-6-methyl-5-(4-methyl-2-thienyl) pyridine-3-carboxamide]
22 | ≤ 100 nM | ≤ 100 nM | COc1cc2nccc(Oc3ccc(NC(=O)c4c(C)nc(C)c(-c5ccsc5)c4O)cc3F)c2nc1OC [Compound 106]
23 | ≤ 100 nM | ≤ 100 nM | COc1cc2nccc(Oc3ccc(NC(=O)c4c(C)nc(C)c(-c5ccoc5)c4O)cc3F)c2nc1OC [Compound 112, N-[4-[(6,7-Dimethoxy-1,5-naphthyridin-4-yl)oxy]-3-fluoro-phenyl]-5-(3-furyl)-4-hydroxy-2,6-dimethyl-pyridine-3-carboxamide]
